# Several values for one entry are separate records, joined by “and”; a condition that tells them apart may be missing. Equal values may be shown once.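 Assay format: 96-well plates, 48-hour exposure. GI50 = concentration required for 50% inhibition of growth. The concentration for full growth arrest is given as TGI.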
# How the values were obtained:
# Assay in all cases: NCI-60 cell line screen, 48 h
# [1] = test system: MOLT-4 leukemia
# [2] = test system: HOP-62 NSCLC
# [3] = test system: HCT-116 colon
# [4] = test system: NCI-H522 lung
# [5] = test system: SNB-75 CNS
# [6] = test system: K-562 leukemia
# [7] = test system: NCI-H23 lung
# [8] = test system: NCI/ADR-RES ovarian
# [9] = test system: HCC-2998 colon
# [10] = test system: SR leukemia
Structure (SMILES),GI50 [1] [µM],TGI [1],GI50 [2],TGI [2] [µM],GI50 [3],TGI [3],GI50 [4],TGI [4] [µM],GI50 [5] [µM],TGI [5],GI50 [6],TGI [6],GI50 [7],TGI [7],GI50 [8],TGI [8],GI50 [9],TGI [9],GI50 [10],TGI [10]
CN1CCN(Cc2ccc(NC(=O)c3cncc(C#Cc4c(N)ncc5ccc(C#N)cc45)c3)cc2C(F)(F)F)CC1,0.801,2.96 µM,0.849 µM,1.92,0.7 µM,1.44 µM,0.748 µM,2.01,2.29,4.54 µM,0.005 µM,0.266 µM,1.02 µM,3.6 µM,1.11 µM,2.63 µM,1.72 µM,5.03 µM,0.547 µM,2.57 µM
OCc1ccc(-c2csc(-c3ccc(CO)o3)c2)o1,20.7,60.1 µM,27.1 µM,> 100,5.71 µM,> 100 µM,43.6 µM,> 100,> 55.3,> 100 µM,11.6 µM,> 100 µM,34.9 µM,> 100 µM,26.9 µM,> 100 µM,40.4 µM,> 100 µM,26.8 µM,> 100 µM
COc1cc2c(NCCCCCO)ncnc2c(OC)c1OC,,> 100 µM,,> 100,,> 100 µM,,> 100,,> 100 µM,,> 100 µM,,> 100 µM,,> 100 µM,,> 100 µM,,> 100 µM
O=C(Cn1c(C(=O)c2ccc(Cl)cc2)nc(-c2ccc(Cl)cc2)c1-c1ccc(Cl)cc1)c1ccccc1,> 100,> 100 µM,> 100 µM,> 100,> 100 µM,> 100 µM,> 100 µM,> 100,> 100,> 100 µM,> 100 µM,> 100 µM,> 100 µM,> 100 µM,> 100 µM,> 100 µM,> 100 µM,> 100 µM,> 100 µM,> 100 µM
COC(=O)c1ccc2nc(-c3cc4ccccc4n3C)n(CCCCOc3cc4c(cc3OC)C(=O)N3CCC[C@H]3C=N4)c2c1,0.298,,0.905 µM,3.76,0.528 µM,2.61 µM,0.291 µM,1.1,0.339,1.35 µM,0.286 µM,,0.485 µM,1.21 µM,3.02 µM,9.8 µM,,,0.643 µM,> 100 µM
CCn1c(-c2nonc2N)nc2c(C#CC(C)(C)O)ncc(OC3CCNCC3)c21,6.32,> 25 µM,> 16.4 µM,> 25,8.15 µM,> 25 µM,4.42 µM,8.82,1.42,> 25 µM,11.1 µM,> 25 µM,> 23.7 µM,> 25 µM,> 25 µM,> 25 µM,7.08 µM,> 25 µM,9.64 µM,> 21.3 µM
COc1cc(-c2cc3ncccc3c3nc(OCCN(C)C)c4cccnc4c23)cc(OC)c1OC,0.314,2.71 µM,0.75 µM,3,,,0.457 µM,2.78,0.414,2.2 µM,0.339 µM,4.63 µM,0.619 µM,3.31 µM,0.383 µM,2.1 µM,0.727 µM,3.1 µM,0.244 µM,2.07 µM
Cn1cc(C2=C(c3c4n(c5ccccc35)CCNC4)C(=O)NC2=O)c2ccccc21,11,> 25 µM,17.5 µM,> 25,9.68 µM,> 25 µM,4.65 µM,> 19.1,1.04,12 µM,4.1 µM,> 25 µM,24.5 µM,> 25 µM,12.7 µM,> 25 µM,7.41 µM,> 17.4 µM,3.73 µM,> 25 µM
CNC(=O)c1nn(C)c2c1C(C)(C)Cc1cnc(Nc3cccc(N4CCN(C)CC4)c3)nc1-2,0.236,10.6 µM,0.44 µM,17.9,0.176 µM,31.2 µM,0.554 µM,11.1,0.159,1.42 µM,0.443 µM,> 50 µM,0.372 µM,9.81 µM,2.1 µM,> 48.8 µM,0.83 µM,14.9 µM,0.286 µM,7.88 µM
CC1=C/C=C/C(=O)O[C@@H]([C@H](C)[C@H](O)[C@@H](C)NC(=O)C(C)C)[C@H](C)/C=C/C(C)=C/[C@H]2C=CCC[C@@]2(C)\C=C\1,8.41,31.6 µM,2.13 µM and 4.68 µM,12.5,0.0446 µM and 0.0232 µM,6.3 µM,4.97 µM and 2.06 µM,13.6,,> 42.3 µM,0.559 µM and 0.565 µM,36.9 µM,1.75 µM and 1.49 µM,15.2 µM,1.43 µM and 0.879 µM,27.6 µM,0.561 µM and 4.67 µM,23.5 µM,0.41 µM and 0.191 µM,5.58 µM
COc1cc(OC)cc(Oc2cnc3cc(N)cc(N)c3n2)c1,5.37,20.7 µM,16.9 µM,36.6,6.47 µM,20.2 µM,18.7 µM,37.3,3.92,18.6 µM,20.2 µM,46.8 µM,14.6 µM,28.8 µM,16.1 µM,43.5 µM,14.6 µM,28.8 µM,11.3 µM,26.1 µM
C[C@@H](N)COc1ccc(-c2cnc3ccc(N[C@H](C)c4cccc(F)c4)nn23)cc1,2,6.44 µM,2.29 µM,11.9,1.46 µM,3.07 µM,1.42 µM,3.17,5.15,20.6 µM,1.95 µM,6.96 µM,2.96 µM,13.1 µM,2.43 µM,7.12 µM,2.01 µM,4.97 µM,0.0715 µM,1.8 µM
C/C(CCC(=O)O)=N/Nc1ccc([N+](=O)[O-])cc1,4.27,> 100 µM,> 100 µM,> 100,4.31 µM,> 100 µM,0.738 µM,> 100,> 100,> 100 µM,0.563 µM,> 100 µM,> 100 µM,> 100 µM,4.44 µM,> 100 µM,5.94 µM,> 100 µM,9.3 µM,> 100 µM
COc1cc2c(c(O)c1Cl)C(=O)c1c(O)cc(C[C@H](C)O)cc1[C@H]2[C@H]1c2cc(C[C@H](C)O)cc(O)c2C(=O)c2c1cc(OC)c(Cl)c2O,,75 µM and > 100 µM,,,,75 µM and > 100 µM,,,,16.4 µM and 70.3 µM,,75 µM and > 100 µM,,75 µM and 84.6 µM,54.8 µM and 58.8 µM,75 µM and > 100 µM,,75 µM and > 100 µM,,75 µM and > 100 µM
CC(c1cc(Cl)ccc1O)c1cc(Cl)ccc1O,3.3,10.3 µM,3.76 µM,17.5,3.38 µM,10.3 µM,2.24 µM,5.24,2.49,11.9 µM,,,2.83 µM,8.32 µM,3.15 µM,9.16 µM,3.84 µM,12.8 µM,2.59 µM,9.95 µM
COC(=O)Oc1nn(C(=O)OC)c(=O)c2ccccc12,,> 100 µM,,> 100,,> 100 µM,,> 100,,> 100 µM,,> 100 µM,,> 100 µM,,> 100 µM,,> 100 µM,,> 100 µM
CC1(C)CC(=O)C=C(/C=C/Sc2c(Cl)c(Cl)nc(Cl)c2Cl)C1,4.61,> 100 µM,12.9 µM,27.8,3.85 µM,13.3 µM,6.17 µM,37,15.9,31.5 µM,8.79 µM,> 100 µM,6.34 µM,19.3 µM,11.3 µM,25.6 µM,9.46 µM,21.3 µM,3.89 µM,> 100 µM
CN1CC=C(c2cc(NC(=O)Nc3ccc(Oc4ccnc(NC(=O)C5CC5)c4)c(F)c3)cc(C(F)(F)F)c2)CC1,0.202,0.943 µM,0.194 µM,1.12,0.167 µM,1.68 µM,0.828 µM,1.84,1.53,2.95 µM,,,0.172 µM,0.712 µM,2.71 µM,13.4 µM,0.281 µM,1.97 µM,0.152 µM,0.863 µM
O=C1Nc2ccccc2/C1=C\c1c(-c2ccccc2)nc2sccn12,1.1,> 37.5 µM,2.32 µM,9.44,1.7 µM,8.96 µM,1.44 µM,14.6,6.74,28.4 µM,0.624 µM,> 45.8 µM,1.63 µM,4.18 µM,1.17 µM,5.13 µM,,,0.309 µM,0.976 µM
Cc1cc(Cl)nc2ccc(Cc3ccc4nc(Cl)cc(C)c4c3)cc12,,> 100 µM,,96.9,,> 100 µM,,> 100,,19.8 µM,,> 100 µM,,> 100 µM,,> 100 µM,,,,> 100 µM
CCc1ccccc1NC(=O)C(C#N)C1=C(Cl)C(=O)c2ccccc2C1=O (configuration not stated),,> 100 µM,,43.4,,28.8 µM,,29.7,,35.4 µM,,> 100 µM,,29.5 µM,,34.2 µM,,,,> 100 µM
CCCCCCCCCCCCCC[n+]1ccccc1,0.618,2.38 µM,,,,,0.923 µM,3.37,0.523,2.22 µM,0.357 µM,6.25 µM,0.507 µM,3.02 µM,8.65 µM,46.8 µM,0.877 µM,2.31 µM,0.499 µM,2.94 µM
Cc1ccc([Se](=C(C(=O)c2ccccc2)C(=O)c2ccccc2)c2ccc(C)cc2)cc1,,43.3 µM,,> 100,,> 100 µM,,72.9,,> 100 µM,,84.5 µM,,59.2 µM,,> 100 µM,,,,33.2 µM
COc1ccc(/C=C/C(=O)c2c(O)ccc3c(C)c(C(=O)O)oc23)cc1,31,> 100 µM,89.9 µM,> 100,49.2 µM,> 100 µM,33.9 µM,> 100,,,36.2 µM,> 100 µM,74.2 µM,> 100 µM,61.9 µM,> 100 µM,36.7 µM,> 100 µM,19.2 µM,64.4 µM
Cc1ccc([P+](Cc2ccccc2)(c2ccccc2)c2ccccc2)cc1,3.32,14 µM,4.25 µM,> 100,1.81 µM,> 100 µM,1.78 µM,6.88,2.21,9.71 µM,1.26 µM,> 100 µM,,,47.8 µM,> 100 µM,2.66 µM,25.1 µM,2.66 µM,16.5 µM
COC1=CC(c2ccc[nH]2)=N/C1=C\c1[nH]c(C)c(C(=O)CCC(=O)Oc2ccc3c(c2)CCC2C3CC[C@]3(C)[C@@H](O)CC[C@@H]23)c1C (some centres not stated),,,1.87 µM,4.95,1.03 µM,3.57 µM,1.99 µM,6.5,4.56,58.4 µM,,,3.56 µM,> 100 µM,4.58 µM,> 100 µM,4.05 µM,> 100 µM,0.643 µM,5.1 µM
COC(=O)c1cc(NC(=O)c2cc(NC(=O)c3cc([N+](=O)[O-])n(C)c3)cn2C)cn1C,,,6.4 µM,> 100,31.8 µM,> 100 µM,58.9 µM,> 100,,,> 100 µM,> 100 µM,24.5 µM,> 100 µM,> 100 µM,> 100 µM,4.26 µM,38.2 µM,39.3 µM,> 100 µM
